The text below walks through data of patent US20230107941A1, “HEPATITIS B CAPSID ASSEMBLY MODULATORS” (Venatorx Pharmaceuticals, Inc., priority 2019, published 2023).

pEC50: −log10 of the molar value. Where two headings read alike, the source gives them in different places.

For data set [1], the system named is HBV. As to the kind of experiment: In vitro antiviral assay: anti-HBV replication in HepAD38 cells (extracellular HBV DNA by QPCR). Particulars: 7 days incubation, extracellular HBV DNA by QPCR, read-out: Anti-HBV EC50. It is filed as cell-based, hepatitis B virus (genotype D, serotype ayw). The gist of the method: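 HepG2-derived HepAD38 cells (HBV genotype D, ayw, tet-repressible CMV) induced by tetracycline withdrawal, treated 7 days at 37 °C with compound (1 μM to 10 pM, 10-fold steps). Supernatant HBV DNA quantified by QPCR against standard curve, percent of DMSO control; EC50 by 4-parameter fit; entecavir positive control.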

The test system of a further data set is HepG2 cells. As to the kind of experiment: In vitro cytotoxicity assay (MTT cell viability) in HepG2 cells. The data set is classed as cell-based, human. The gist of the method:
(§1)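 CC50 was derived by 4-parameter fit of viability relative to vehicle controls, measured as MTT formazan absorbance at 492 nm after 3–4 h of reagent and DMSO solubilization. Before that, HepG2 cells seeded overnight at 20,000/well were incubated 7 days at 37°C with compound from 30 μM down to 1.0 nM in half-log steps.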

Data set [2] relates to HBV. Particulars: Phase 1b clinical trial, 600 mg bid dosing for 29 days; cited from earlier work.
Data set [3] can be described thus: In vitro cytotoxicity assay (MTT cell viability) in HepG2 cells. Particulars: human. It is filed as cell-based, human. The gist of the method: as §1
The mark [4] stands for this setting: Hepatitis B virus, HePAD38, 168 h.

Broadly, the pEC50 is −log10 of the EC50, conventionally taken in molar units. In general, CC50 refers to the concentration that lowers cell viability or growth by half. For `Cc1cc(NC(=O)c2c(C)c(C(=O)C(=O)NC3(C)CC(OP(=O)(O)O)C3)n(C)c2C)ccc1F` (stereo not drawn) [Example 64, sodium (1s,3s)-3-(2-(4-((4-fluoro-3-methylphenyl)carbamoyl)-1,3,5-trimethyl-1H-pyrrol-2-yl)-2-oxoacetamido)-3-methylcyclobutyl phosphate], in the data set with HBV [1] (setting [4]), the pEC50 was less than 6.00. Also, the CC50 with HepG2 cells (HepG2 cells, 7 days incubation, MTT, read-out: HepG2 CC50) is greater than 30000 nM.
`Cc1cc(NC(=O)c2c(C)c(C(=O)C(=O)NC3CC(S(C)(=O)=O)C3)n(C)c2C)ccc1F` (stereo not drawn) [Example 32, N-(4-fluoro-3-methylphenyl)-1,2,4-trimethyl-5-(2-(((1r,3r)-3-(methylsulfonyl)cyclobutyl)amino)-2-oxoacetyl)-1H-pyrrole-3-carboxamide]: the pEC50 with HBV [1] is 6.30 to 7.30. Besides, the half-maximal cytotoxic concentration (CC50) with HepG2 cells (human, 7 days) was greater than 30000 nM.
With `O=C(Nc1cc(F)c(F)c(F)c1)c1ccc(F)c(S(=O)(=O)N2CCC(O)CC2)c1` [NVR 3-778], the “reduction in HBV DNA” value with HBV [2] is given as −1.7 log 10.
Consider `Cc1c(C(=O)Nc2cccc(Cl)n2)c(C)n(C)c1C(=O)C(=O)N[C@H](C)C(F)(F)F` [Example 77, (R)-N-(6-chloropyridin-2-yl)-1,2,4-trimethyl-5-(2-oxo-2-((1,1,1-trifluoropropan-2-yl)amino)acetyl)-1H-pyrrole-3-carboxamide], for which the pEC50 with HBV [1] (setting [4]) is 6.30 to 7.30. The compound further showed a CC50 at 7 days in data set [3] greater than 30000 nM.
Regarding `Cc1cc(NC(=O)c2c(C)c(C(=O)C(=O)Nc3ccccc3N3CCOCC3)n(C)c2C)ccc1F` [Example 52, N-(4-fluoro-3-methylphenyl)-1,2,4-trimethyl-5-(2-((2-morpholinophenyl)amino)-2-oxoacetyl)-1H-pyrrole-3-carboxamide], the negative-log EC50 (pEC50) in the data set with HBV [1] (setting [4]) was 6.30 to 7.30. The compound also had a CC50 at 7 days in data set [3] of 5000 to 30000 nM.
In the case of `Cc1c(C(=O)Nc2ccc(F)c(C#N)c2)c(C)n(C)c1C(=O)C(=O)N[C@]1(C)CC[C@@H](O)CC1` [Example 16, N-(3-cyano-4-fluorophenyl)-5-(2-(((1r,4r)-4-hydroxy-1-methylcyclohexyl)amino)-2-oxoacetyl)-1,2,4-trimethyl-1H-pyrrole-3-carboxamide], the pEC50 in the data set with HBV [1] (setting [4]) was greater than 7.30. This compound came in with a CC50 at 7 days in data set [3] greater than 30000 nM.
Regarding `Cc1cc(NC(=O)c2c(C)c(C(=O)C(=O)NCC(C)(C)O)n(C)c2-c2nccs2)ccc1F` [Example 178, N-(4-fluoro-3-methylphenyl)-5-(2-((2-hydroxy-2-methylpropyl)amino)-2-oxoacetyl)-1,4-dimethyl-2-(thiazol-2-yl)-1H-pyrrole-3-carboxamide], the negative logarithm of the EC50 (pEC50) with HBV [1] (setting [4]) was less than 6.00. This compound gave a half-maximal cytotoxic concentration (CC50) at 7 days in data set [3] greater than 30000 nM.
For `CCC1(NC(=O)C(=O)c2c(C)c(C(=O)Nc3ccc(F)c(C)c3)c(C)n2C)CCN(c2cnccn2)CC1` [Example 50, 5-(2-((4-ethyl-1-(pyrazin-2-yl)piperidin-4-yl)amino)-2-oxoacetyl)-N-(4-fluoro-3-methylphenyl)-1,2,4-trimethyl-1H-pyrrole-3-carboxamide] the same measures were greater than 7.30 and greater than 30000 nM.
For `Cc1cc(NC(=O)c2c(C3CC3)c(C(=O)C(=O)NCC(C)(C)O)n(C)c2C)ccc1F` [Example 99, 4-cyclopropyl-N-(4-fluoro-3-methylphenyl)-5-(2-((2-hydroxy-2-methylpropyl)amino)-2-oxoacetyl)-1,2-dimethyl-1H-pyrrole-3-carboxamide] the same measures were less than 6.00 and greater than 30000 nM.
As to `Cc1cc(NC(=O)c2c(C)c(C(=O)C(=O)N[C@]3(C)C[C@H](O)C3)n(C)c2-c2ccsc2)ccc1F` [Example 181, N-(4-fluoro-3-methylphenyl)-5-(2-(((1s,3s)-3-hydroxy-1-methylcyclobutyl)amino)-2-oxoacetyl)-1,4-dimethyl-2-(thiophen-3-yl)-1H-pyrrole-3-carboxamide], the pEC50 in the data set with HBV [1] (setting [4]) was 6.00 to 6.30. The 50% cytotoxic concentration (CC50) at 7 days in data set [3] was in the range of 5000 to 30000 nM.
Consider `CC(=O)N1CC[C@@H](NC(=O)C(=O)c2c(C)c(C(=O)Nc3ccc(F)c(C)c3)c(C)n2C)C(F)(F)C1` [Example 148, (R)-5-(2-((1-acetyl-3,3-difluoropiperidin-4-yl)amino)-2-oxoacetyl)-N-(4-fluoro-3-methylphenyl)-1,2,4-trimethyl-1H-pyrrole-3-carboxamide], for which the negative logarithm of the EC50 (pEC50) with HBV [1] (setting [4]) is greater than 7.30. Also, in data set [3], the half-maximal cytotoxic concentration (CC50) at 7 days is greater than 30000 nM.
Turning to `Cc1ccc(F)c(NC(=O)c2c(C)c(C(=O)C(=O)NC(C)(C)C)n(C)c2C)c1` [Example 68, 5-(2-(tert-butylamino)-2-oxoacetyl)-N-(2-fluoro-5-methylphenyl)-1,2,4-trimethyl-1H-pyrrole-3-carboxamide], in the data set with HBV [1] (setting [4]), the negative-log EC50 (pEC50) is greater than 7.30. For the same compound, in data set [3], the half-maximal cytotoxic concentration (CC50) at 7 days is greater than 30000 nM.
Regarding `Cc1cc(NC(=O)c2c(C)c(C(=O)C(=O)N[C@]3(C)C[C@H](O)C3)n(C)c2CC2CC2)ccc1F` [Example 123, 2-(cyclopropylmethyl)-N-(4-fluoro-3-methylphenyl)-5-(2-(((1s,3s)-3-hydroxy-1-methylcyclobutyl)amino)-2-oxoacetyl)-1,4-dimethyl-1H-pyrrole-3-carboxamide], in the data set with HBV [1] (setting [4]), the negative-log EC50 (pEC50) was greater than 7.30. In data set [3], this compound had a CC50 at 7 days greater than 30000 nM.
`Cc1cc(NC(=O)c2c(C)c(C(=O)C(=O)NCC(C)(C)O)n(C)c2-c2ccccn2)ccc1F` [Example 159, N-(4-fluoro-3-methylphenyl)-5-(2-((2-hydroxy-2-methylpropyl)amino)-2-oxoacetyl)-1,4-dimethyl-2-(pyridin-2-yl)-1H-pyrrole-3-carboxamide]: in the data set on HBV [1] (setting [4]), the pEC50 was less than 6.00. In data set [3], this compound had a CC50 at 7 days greater than 30000 nM.
For `Cc1cc(NC(=O)c2c(C)c(C(=O)C(=O)NC3(CO)CCN(S(C)(=O)=O)CC3)n(C)c2C)ccc1F` [Example 73, N-(4-fluoro-3-methylphenyl)-5-(2-((4-(hydroxymethyl)-1-(methylsulfonyl)piperidin-4-yl)amino)-2-oxoacetyl)-1,2,4-trimethyl-1H-pyrrole-3-carboxamide] the same measures were greater than 7.30 and greater than 30000 nM.
Regarding `Cc1cc(NC(=O)c2c(C3CC3)c(C(=O)C(=O)N[C@H](C)C(F)(F)F)n(C)c2C)ccc1F` [Example 101, (R)-4-cyclopropyl-N-(4-fluoro-3-methylphenyl)-1,2-dimethyl-5-(2-oxo-2-((1,1,1-trifluoropropan-2-yl)amino)acetyl)-1H-pyrrole-3-carboxamide], the pEC50 with HBV [1] (setting [4]) is greater than 7.30. Moreover, the CC50 at 7 days in data set [3] was greater than 30000 nM.
For `Cc1cc(NC(=O)c2c(C)c(C(=O)C(=O)N[C@H]3CC[C@@H](O)CC3)n(C)c2-c2cccnc2)ccc1F` [Example 153, N-(4-fluoro-3-methylphenyl)-5-(2-(((1s,4s)-4-hydroxycyclohexyl)amino)-2-oxoacetyl)-1,4-dimethyl-2-(pyridin-3-yl)-1H-pyrrole-3-carboxamide], in that order: less than 6.00 and greater than 30000 nM.
